24 compounds from US7517874B2 (priority 2007, dated 2009) can be followed below.

Structures are written as SMILES. Where two headings read alike, the source gives them in different places. A value given as a limit tells only on which side of the number the result lay.

The target of experiment [1] is human CB1 receptor (hCB1) (Homo sapiens, UniProt P21554). Kind of experiment: cell-based. In kind it is cell-based. Put shortly:
(§1)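 First, cells in IBMX-containing HEPES-buffered HBSS are raised to elevated cAMP with 2-8 μM NKH-477 for 30 min. Data are normalised to the forskolin and forskolin + 1 μM CP55,940 controls.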

A further experiment addresses T1, rat CB2 receptor (rCB2) (Rattus norvegicus, UniProt Q9QZN9).
T1 sequence (Q9QZN9 1-360): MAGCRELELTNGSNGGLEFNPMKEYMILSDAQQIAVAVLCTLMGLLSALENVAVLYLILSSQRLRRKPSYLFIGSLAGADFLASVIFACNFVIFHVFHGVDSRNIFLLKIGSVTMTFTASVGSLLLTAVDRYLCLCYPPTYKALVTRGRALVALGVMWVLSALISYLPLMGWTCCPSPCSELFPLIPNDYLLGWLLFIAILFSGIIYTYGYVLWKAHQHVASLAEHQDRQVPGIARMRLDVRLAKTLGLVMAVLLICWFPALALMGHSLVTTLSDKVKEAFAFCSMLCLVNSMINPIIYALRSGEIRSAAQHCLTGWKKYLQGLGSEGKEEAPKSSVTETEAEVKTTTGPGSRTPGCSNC
Kind of experiment: cell-based. In kind it is cell-based. Particulars: for +/− RCB2: agonist or inverse agonist at rCB2. Put shortly:
as §1

Where [2] appears, read: groups >100 nM-10 μM and >10 μM, cAMP, CHO-K1 hCB1, read-out: EC50 HCB1.

human CB1 receptor (hCB1), sequence (P21554 whole entry): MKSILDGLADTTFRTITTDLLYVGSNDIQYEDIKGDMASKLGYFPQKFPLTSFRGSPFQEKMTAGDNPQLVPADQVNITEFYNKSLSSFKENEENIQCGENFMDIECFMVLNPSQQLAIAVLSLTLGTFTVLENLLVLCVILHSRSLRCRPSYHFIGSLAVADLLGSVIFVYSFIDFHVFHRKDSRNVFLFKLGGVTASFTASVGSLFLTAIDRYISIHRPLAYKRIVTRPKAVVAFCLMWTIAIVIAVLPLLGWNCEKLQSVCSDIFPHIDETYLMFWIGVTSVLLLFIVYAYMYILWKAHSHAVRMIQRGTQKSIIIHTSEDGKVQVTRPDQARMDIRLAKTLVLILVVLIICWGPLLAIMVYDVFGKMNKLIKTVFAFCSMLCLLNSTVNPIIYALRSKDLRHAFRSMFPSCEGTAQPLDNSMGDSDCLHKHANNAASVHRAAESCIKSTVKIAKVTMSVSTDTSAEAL

For `COC(=O)N1CCn2c(-c3ccccc3)nc(C(=O)N[C@@H](C)c3ccccc3)c2C1` [Compound 179, (S)-methyl 3-phenyl-1-(1-phenylethylcarbamoyl)-5,6-dihydroimidazo[1,5-a]pyrazine-7(8H)-carboxylate], the EC50 – broadly, the concentration giving half of the maximal effect – in experiment [1] was above 10000 nM. Further, the “+/− RCB2” value on rat CB2 receptor (rCB2) is given as “−”.
On the same counts, the results for `CNC(=O)[C@@H](NC(=O)c1nc(CCCOC)n2c1CN(C)CCC2)C(C)(C)C` [Compound 489, (S)-N-(3,3-dimethyl-1-(methylamino)-1-oxobutan-2-yl)-3-(3-methoxypropyl)-8-methyl-6,7,8,9-tetrahydro-5H-imidazo[1,5-a][1,4]diazepine-1-carboxamide] are above 10000 nM and “+”.
On to `CN1CCn2c(-c3ccc(Cl)cc3F)nc(C(=O)N3CCC(n4c(=O)[nH]c5ccccc54)CC3)c2C1` [Compound 215, 1-(1-(3-(4-chloro-2-fluorophenyl)-7-methyl-5,6,7,8-tetrahydroimidazo[1,5-a]pyrazine-1-carbonyl)piperidin-4-yl)-1H-benzo[d]imidazol-2(3H)-one], for which the EC50 in experiment [1] (setting [2]) is above 10000 nM. The “+/− RCB2” value on rat CB2 receptor (rCB2) was “−”.
`O=C(NC1CCCCC1)c1nc(-c2ccccc2)n2c1CN(CCO)CC2` [Compound 166, N-cyclohexyl-7-(2-hydroxyethyl)-3-phenyl-5,6,7,8-tetrahydroimidazo[1,5-a]pyrazine-1-carboxamide]: the EC50 in experiment [1] (setting [2]) was above 10000 nM. Besides, the “+/− RCB2” value at rat CB2 receptor (rCB2) is “−”.
For `C[C@@H](NC(=O)c1nc(-c2ccccc2)n2c1CNCC2)C(C)(C)C` [Compound 26, (R)-N-(3,3-dimethylbutan-2-yl)-3-phenyl-5,6,7,8-tetrahydroimidazo[1,5-a]pyrazine-1-carboxamide], the EC50 (in experiment [1]; at rat CB2 receptor (rCB2)) was above 10000 nM each time.
In turn, `CNC(=O)[C@@H](NC(=O)c1nc(C=C(C)C)n2c1CN(C)CCC2)C(C)(C)C` [Compound 377, (S)-N-(3,3-dimethyl-1-(methylamino)-1-oxobutan-2-yl)-8-methyl-3-(2-methylprop-1-enyl)-6,7,8,9-tetrahydro-5H-imidazo[1,5-a][1,4]diazepine-1-carboxamide] yielded a half-maximal effective concentration (EC50) in experiment [1] above 10000 nM. In addition, the “+/− RCB2” value on rat CB2 receptor (rCB2) is “+”.
Consider `CNC(=O)[C@@H](NC(=O)c1nc(-c2cccnc2)n2c1CNCC2)C(C)(C)C` [Compound 14, (S)-N-(3,3-dimethyl-1-(methylamino)-1-oxobutan-2-yl)-3-(pyridin-3-yl)-5,6,7,8-tetrahydroimidazo[1,5-a]pyrazine-1-carboxamide], for which the EC50 in experiment [1] was above 10000 nM. At rat CB2 receptor (rCB2), the “+/− RCB2” value is “+”.
Consider `CNC(=O)[C@@H](NC(=O)c1nc(-c2ccc(C)cc2)n2c1CN(C)CCC2)C(C)(C)C` [Compound 332, (S)-N-(3,3-dimethyl-1-(methylamino)-1-oxobutan-2-yl)-8-methyl-3-p-tolyl-6,7,8,9-tetrahydro-5H-imidazo[1,5-a][1,4]diazepine-1-carboxamide], for which the EC50 (in experiment [1]; at rat CB2 receptor (rCB2)) was above 10000 nM throughout.
In turn, `CNC(=O)[C@@H](NC(=O)c1nc(-c2csc3ccccc23)n2c1CN(C)CC2)C(C)(C)C` [Compound 75, (S)-3-(benzo[b]thiophen-3-yl)-N-(3,3-dimethyl-1-(methylamino)-1-oxobutan-2-yl)-7-methyl-5,6,7,8-tetrahydroimidazo[1,5-a]pyrazine-1-carboxamide] registered an EC50 in experiment [1] above 10000 nM. In addition, the “+/− RCB2” value at rat CB2 receptor (rCB2) was “+”.
On to `CNC(=O)[C@@H](NC(=O)c1nc(-c2ccc(C(=O)N3CCOCC3)cc2)n2c1CN(C)CCC2)C(C)(C)C` [Compound 401, (S)-N-(3,3-dimethyl-1-(methylamino)-1-oxobutan-2-yl)-8-methyl-3-(4-(morpholine-4-carbonyl)phenyl)-6,7,8,9-tetrahydro-5H-imidazo[1,5-a][1,4]diazepine-1-carboxamide], for which the EC50 (in experiment [1]; at rat CB2 receptor (rCB2)) was above 10000 nM each time.
In experiment [1], `CNC(=O)[C@@H](NC(=O)c1nc(-c2ccc(C)cc2F)n2c1CN(C)CC2)C(C)(C)C` [Compound 249, (S)-N-(3,3-dimethyl-1-(methylamino)-1-oxobutan-2-yl)-3-(2-fluoro-4-methylphenyl)-7-methyl-5,6,7,8-tetrahydroimidazo[1,5-a]pyrazine-1-carboxamide] had a concentration for a half-maximal effect (EC50) above 10000 nM. Also, on rat CB2 receptor (rCB2), the “+/− RCB2” value was “−”.
On to `CNC(=O)[C@@H](NC(=O)c1nc(-c2ccccc2)n2c1CN(C(=O)Nc1ccccc1)CC2)C(C)(C)C` [Compound 194, (S)-N1-(3,3-dimethyl-1-(methylamino)-1-oxobutan-2-yl)-N7,3-diphenyl-5,6-dihydroimidazo[1,5-a]pyrazine1,7-(8H)-dicarboxamide], for which the 50% effective concentration (EC50) (in experiment [1]; at rat CB2 receptor (rCB2)) was above 10000 nM in each case.
`CCC/C=C/c1nc(C(=O)N[C@H](C(=O)NC)C(C)(C)C)c2n1CCCN(C)C2` [Compound 434, (S,E)-N-(3,3-dimethyl-1-(methylamino)-1-oxobutan-2-yl)-8-methyl-3-(pent-1-enyl)-6,7,8,9-tetrahydro-5H-imidazo[1,5-a][1,4]diazepine-1-carboxamide] displayed an EC50 in experiment [1] above 10000 nM. In addition, the “+/− RCB2” value on rat CB2 receptor (rCB2) is listed as “+”.
Regarding `CC(C)(C)[C@@H](CO)NC(=O)c1nc(-c2ccccc2)n2c1CN(S(=O)(=O)c1ccc(F)cc1)CC2` [Compound 101, (S)-7-(4-fluorophenylsulfonyl)-N-(1-hydroxy-3,3-dimethylbutan-2-yl)-3-phenyl-5,6,7,8-tetrahydroimidazo[1,5-a]pyrazine-1-carboxamide], the EC50 in experiment [1] is above 10000 nM. Further, at rat CB2 receptor (rCB2), the “+/− RCB2” value is recorded as “−”.
In the case of `CNC(=O)[C@@H](NC(=O)c1nc(C#Cc2cccnc2)n2c1CN(C)CC2)C(C)(C)C` [Compound 205, (S)-N-(3,3-dimethyl-1-(methylamino)-1-oxobutan-2-yl)-7-methyl-3-(pyridin-3-ylethynyl)-5,6,7,8-tetrahydroimidazo[1,5-a]pyrazine-1-carboxamide], the EC50 (in experiment [1]; at rat CB2 receptor (rCB2)) was above 10000 nM in each case.
`CC(C)(C)C(=O)N1CCn2c(-c3ccccc3)nc(C(=O)NC3C4(C)CCC(C4)C3(C)C)c2C1` (stereo not drawn) [Compound 123, 3-phenyl-7-pivaloyl-N-(1,3,3-trimethylbicyclo[2.2.1]heptan-2-yl)-5,6,7,8-tetrahydroimidazo[1,5-a]pyrazine-1-carboxamide] yielded a 50% effective concentration (EC50) in experiment [1] above 10000 nM. For the same compound, the “+/− RCB2” value at rat CB2 receptor (rCB2) is reported as “−”.
For `CC(C)(C)[C@@H](CO)NC(=O)c1nc(-c2ccc(Cl)cc2)n2c1CN(CCO)CC2` [Compound 162, (S)-3-(4-chlorophenyl)-N-(1-hydroxy-3,3-dimethylbutan-2-yl)-7-(2-hydroxyethyl)-5,6,7,8-tetrahydroimidazo[1,5-a]pyrazine-1-carboxamide] the same measures were above 10000 nM and “−”.
For `CNC(=O)[C@H](CC(C)(C)C)NC(=O)c1nc(-c2ccc(Cl)cc2F)n2c1CN(C)CCC2` [Compound 544, (S)-3-(4-chloro-2-fluorophenyl)-N-(4,4-dimethyl-1-(methylamino)-1-oxopentan-2-yl)-8-methyl-6,7,8,9-tetrahydro-5H-imidazo[1,5-a][1,4]diazepine-1-carboxamide], the “+/− HCB1” value in experiment [1] (agonist or inverse agonist at hCB1) was “+”. At rat CB2 receptor (rCB2), the “+/− RCB2” value is recorded as “+”.
`CNC(=O)[C@@H](NC(=O)c1nc(Cl)n2c1CN(C)CCC2)C(C)(C)C` [Compound 598, (S)-3-chloro-N-(3,3-dimethyl-1-(methylamino)-1-oxobutan-2-yl)-8-methyl-6,7,8,9-tetrahydro-5H-imidazo[1,5-a][1,4]diazepine-1-carboxamide] had an EC50 in experiment [1] above 10000 nM. Besides, the “+/− RCB2” value on rat CB2 receptor (rCB2) is “+”.
`CCS(=O)(=O)N1CCn2c(-c3ccccc3)nc(C(=O)NC3C4(C)CCC(C4)C3(C)C)c2C1` (stereo not drawn) [Compound 112, 7-(ethylsulfonyl)-3-phenyl-N-(1,3,3-trimethylbicyclo[2.2.1]heptan-2-yl)-5,6,7,8-tetrahydroimidazo[1,5-a]pyrazine-1-carboxamide] came in with an EC50 in experiment [1] above 10000 nM. Also, the “+/− RCB2” value on rat CB2 receptor (rCB2) is reported as “−”.
With `CCN(CC)C/C=C/c1nc(C(=O)N[C@H](C(=O)NC)C(C)(C)C)c2n1CCCN(C)C2` [Compound 512, (S,E)-3-(3-(diethylamino)prop-1-enyl)-N-(3,3-dimethyl-1-(methylamino)-1-oxobutan-2-yl)-8-methyl-6,7,8,9-tetrahydro-5H-imidazo[1,5-a][1,4]diazepine-1-carboxamide], the EC50 (in experiment [1]; at rat CB2 receptor (rCB2)) was above 10000 nM each time.
In experiment [1], `CNC(=O)[C@@H](NC(=O)c1nc(-c2ccc(Cl)cc2F)n2c1CN(C(=O)OC(C)(C)C)CCC2)C(C)(C)C` [Compound 313] showed an EC50 above 10000 nM. The “+/− RCB2” value on rat CB2 receptor (rCB2) is “−”.
On to `CN1CCCn2c(-c3ccccc3)nc(C(=O)N[C@H](C(=O)N(C)C)C(C)(C)C)c2C1` [Compound 557, (S)-N-(1-(dimethylamino)-3,3-dimethyl-1-oxobutan-2-yl)-8-methyl-3-phenyl-6,7,8,9-tetrahydro-5H-imidazo[1,5-a][1,4]diazepine-1-carboxamide], for which the EC50 in experiment [1] is above 10000 nM. Moreover, at rat CB2 receptor (rCB2), the “+/− RCB2” value is given as “+”.
In the case of `CC(CO)NC(=O)c1nc(-c2ccccc2)n2c1CN(C)CC2` (stereo not drawn) [Compound 231, N-(1-hydroxypropan-2-yl)-7-methyl-3-phenyl-5,6,7,8-tetrahydroimidazo[1,5-a]pyrazine-1-carboxamide], the EC50 in experiment [1] (setting [2]) is above 10000 nM; at rat CB2 receptor (rCB2) (groups >100 nM-10 μM and >10 μM, cAMP, CHO-K1 rCB2, read-out: EC50 RCB2), above 10000 nM.
